The values below come from patent publication US8642788B2, “Activators of executioner procaspases 3, 6 and 7” (The Regents of the University of California, priority 2008, dated 2014).

Holding throughout (format): biochemical
One assay concerns the target T1, procaspase-3 (Homo sapiens, UniProt P42574).
T1 construct: His6 (C); made in house; host or cells: E. coli BL21(DE3)RP, pET-23b
T1 sequence (P42574 1-277): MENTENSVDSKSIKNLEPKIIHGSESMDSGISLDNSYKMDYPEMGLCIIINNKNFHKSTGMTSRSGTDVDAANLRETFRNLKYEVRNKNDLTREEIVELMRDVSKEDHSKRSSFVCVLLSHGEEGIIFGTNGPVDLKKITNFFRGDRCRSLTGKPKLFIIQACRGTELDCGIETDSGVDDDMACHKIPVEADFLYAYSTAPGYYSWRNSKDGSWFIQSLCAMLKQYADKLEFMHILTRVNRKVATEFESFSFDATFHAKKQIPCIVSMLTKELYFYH
Description: Executioner procaspase-3 activation assay (Ac-DEVD-AFC fluorogenic substrate). Put shortly: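 Procaspase-3 at 100 nM was incubated with activating compounds (100 nM to 100 uM) in 50 mM HEPES pH 7.4, 50 mM KCl, 1 mM DTT and 0.01% Triton-X100, the detergent limiting aggregation artefacts. Protein, substrate and inhibitor were kept as frozen aliquots and thawed just before use.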

In a further assay the target is T2, procaspase-6 (Homo sapiens, UniProt P55212).
T2 sequence (P55212 1-293): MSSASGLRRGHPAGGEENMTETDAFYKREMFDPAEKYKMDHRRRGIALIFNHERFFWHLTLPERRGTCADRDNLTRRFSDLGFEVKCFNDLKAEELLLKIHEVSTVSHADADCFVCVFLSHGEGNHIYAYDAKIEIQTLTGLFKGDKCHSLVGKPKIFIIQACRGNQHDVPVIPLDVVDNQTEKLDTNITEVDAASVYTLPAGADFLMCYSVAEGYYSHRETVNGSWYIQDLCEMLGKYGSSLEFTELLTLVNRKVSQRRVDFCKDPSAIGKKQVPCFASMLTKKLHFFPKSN
Description: Executioner procaspase-6 activation assay (Ac-VEID-AFC fluorogenic substrate). The settings on record: incubation with compound for 5 h at 37° C.; 100 nM procaspase. Put shortly: (§1)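 Procaspase at 100 nM incubated with compound (100 nM–100 μM) in 50 mM HEPES pH 7.4, KCl, DTT, 0.01% Triton X-100, 3% DMSO, 37 °C for 5 h; then 25 μM Ac-DEVD-AFC (procaspase-7) or Ac-VEID-AFC (procaspase-6), kinetic fluorescence 30 min (ex 365/em 495); EC50 reported.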

The next assay concerns the target T3, procaspase-7 (Homo sapiens, UniProt P55210).
T3 construct: His6 (C); made in house; host or cells: E. coli BL21(DE3)RP, pET-21b
T3 sequence (P55210 1-303): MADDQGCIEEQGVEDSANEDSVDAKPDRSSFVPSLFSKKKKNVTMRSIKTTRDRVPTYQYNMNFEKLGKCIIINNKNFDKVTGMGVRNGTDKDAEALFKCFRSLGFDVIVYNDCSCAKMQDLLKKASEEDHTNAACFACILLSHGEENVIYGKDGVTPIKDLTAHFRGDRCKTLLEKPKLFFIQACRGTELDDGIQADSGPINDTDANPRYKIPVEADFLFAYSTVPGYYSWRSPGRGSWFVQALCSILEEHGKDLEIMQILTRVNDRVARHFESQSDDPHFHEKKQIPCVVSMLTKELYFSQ
Description: Executioner procaspase-7 activation assay (Ac-DEVD-AFC fluorogenic substrate). The settings on record: incubation with compound for 5 h at 37° C.; 100 nM procaspase. The gist of the method: as §1

The mark [1] stands for this setting: incubation with compound for 5 h at 37° C., 100 nM procaspase, read-out: Procaspase Activation 3.

The structures appear in SMILES notation. Where two headings read alike, the source gives them in different places.

On to `O=C(Nc1cccc(-c2cccc3[nH]ccc23)c1)c1cc2cccc(O)c2oc1=O` [compound 167, 8-Hydroxy-2-oxo-2H-chromene-3-carboxylic acid [3-(1H-indol-4-yl)-phenyl]-amide], for which the EC50 at procaspase-3, at procaspase-6 and on procaspase-7 was more than 100 µM each time.

Turning to `COc1cccc2cc(C(=O)Nc3cccc(-c4cccc5[nH]ccc45)c3)c(=O)oc12` [compound 168, 8-Methoxy-2-oxo-2H-chromene-3-carboxylic acid [3-(1H-indol-4-yl)-phenyl]-amide], the EC50 on procaspase-3, at procaspase-6 and on procaspase-7 was more than 100 µM each time.

`O=C(Nc1cccc(-c2cnn(Cc3ccccc3)c2)c1)c1cc2cccc(O)c2oc1=O` [compound 169, 8-Hydroxy-2-oxo-2H-chromene-3-carboxylic acid [3-(1-benzyl-1H-pyrazol-4-yl)-phenyl]-amide]: the EC50 at procaspase-3 (setting [1]), at procaspase-6 and at procaspase-7 was more than 100 µM in each case.

For the molecule `COc1cccc2cc(C(=O)Nc3cccc(-c4cnn(Cc5ccccc5)c4)c3)c(=O)oc12` [compound 170, 8-Methoxy-2-oxo-2H-chromene-3-carboxylic acid [3-(1-benzyl-1H-pyrazol-4-yl)-phenyl]-amide], the EC50 at procaspase-3 (setting [1]), at procaspase-6 and at procaspase-7 was more than 100 µM in each case.

For `Cn1cc(-c2cccc(NC(=O)c3cc4cccc(O)c4oc3=O)c2)cn1` [compound 171, 8-Hydroxy-2-oxo-2H-chromene-3-carboxylic acid [3-(1-methyl-1H-pyrazol-4-yl)-phenyl]-amide], the EC50 at procaspase-3 (setting [1]), on procaspase-6 and at procaspase-7 was more than 100 µM in each case.

With `COc1cccc2cc(C(=O)Nc3cccc(-c4cnn(C)c4)c3)c(=O)oc12` [compound 172, 8-Methoxy-2-oxo-2H-chromene-3-carboxylic acid [3-(1-methyl-1H-pyrazol-4-yl)-phenyl]-amide], the EC50 at procaspase-3 (setting [1]), at procaspase-6 and on procaspase-7 was more than 100 µM in each case.

Turning to `CC(C)(C)OC(=O)n1cccc1-c1cccc(NC(=O)c2cc3cccc(O)c3oc2=O)c1` [compound 173, 2-{3-[(8-Hydroxy-2-oxo-2H-chromene-3-carbonyl)-amino]-phenyl}-pyrrole-1-carboxylic acid tert-butyl ester], the EC50 on procaspase-3 (setting [1]), on procaspase-6 and at procaspase-7 was more than 100 µM in each case.

Turning to `COc1cccc2cc(C(=O)Nc3cccc(-c4cccn4C(=O)OC(C)(C)C)c3)c(=O)oc12` [compound 174, 2-{3-[(8-Methoxy-2-oxo-2H-chromene-3-carbonyl)-amino]-phenyl}-pyrrole-1-carboxylic acid tert-butyl ester], the EC50 at procaspase-3 (setting [1]), at procaspase-6 and at procaspase-7 was more than 100 µM throughout.

In the case of `CC(C)(C)OC(=O)n1c(-c2cccc(NC(=O)c3cc4cccc(O)c4oc3=O)c2)cc2ccccc21` [compound 175, 2-{3-[(8-Hydroxy-2-oxo-2H-chromene-3-carbonyl)-amino]-phenyl}-indole-1-carboxylic acid tert-butyl ester], the EC50 on procaspase-3 (setting [1]), at procaspase-6 and on procaspase-7 was more than 100 µM throughout.

Take `COc1cccc2cc(C(=O)Nc3cccc(-c4cc5ccccc5n4C(=O)OC(C)(C)C)c3)c(=O)oc12` [compound 176, 2-{3-[(8-Methoxy-2-oxo-2H-chromene-3-carbonyl)-amino]-phenyl}-indole-1-carboxylic acid tert-butyl ester]: the EC50 at procaspase-3 (setting [1]), at procaspase-6 and on procaspase-7 was more than 100 µM throughout.

As to `O=C(Nc1cccc(-c2cc(F)cc(F)c2)c1)c1cc2cccc(O)c2oc1=O` [compound 177, 8-Hydroxy-2-oxo-2H-chromene-3-carboxylic acid (3′,5′-difluoro-biphenyl-3-yl)-amide], the EC50 at procaspase-3 (setting [1]), at procaspase-6 and on procaspase-7 was more than 100 µM each time.

For the molecule `COc1cccc2cc(C(=O)Nc3cccc(-c4cc(F)cc(F)c4)c3)c(=O)oc12` [compound 178, 8-Methoxy-2-oxo-2H-chromene-3-carboxylic acid (3′,5′-difluoro-biphenyl-3-yl)-amide], the EC50 at procaspase-3 (setting [1]) was more than 100 µM; on procaspase-6, 10 to 50 µM; at procaspase-7, more than 100 µM.
